Test results taken from PMC9716094, “Synthesis of novel amidines via one-pot three component reactions: Selective topoisomerase I inhibitors with antiproliferative properties” (Frontiers in Chemistry, 2022).

How the values were obtained:
[1] = test system: A-549 (epithelial cancer cell line); test: Antiproliferative assay, A-549; type: cell-based; details: Homo sapiens, A549; read-out: Antiproliferative activity IC50 ± SEM, A-549
Text: (§1) See Supplementary Appendix S1A.
(§2) DMSO (0.1%) was used as control.

[2] = test system: HT-29 (colon cancer cell line); test: Antiproliferative assay, HT-29; details: Homo sapiens, HT-29, read-out: Antiproliferative activity IC50 ± SEM, HT-29
Protocol: (§4) The IC50 of each compound was calculated using doxorubicin as the reference.
(§5) To explore the antiproliferative potential of compounds MTT assay was performed according to previously reported procedure using different cell lines to explore the antiproliferative potential of compounds propidium iodide fluorescence assay was performed using different cell lines. To calculate the total nuclear DNA, a fluorescent dye (propidium iodide, PI) is used which can attach to the DNA, thus offering a quick and precise technique. PI cannot pass through the cell membrane and its signal intensity can be considered as directly proportional to quantity of cellular DNA. Cells whose cell membranes are damaged or have changed permeability are counted as dead ones. The assay was performed by seeding the cells of different cell lines at a density of 3000-7500 cells/well (in 200µl medium) in culture plates followed by incubation for 24h at 37 °C in humidified 5% CO2/95% air atmospheric conditions. The medium was removed; the compounds were added to the plates at 10 µM concentrations (in 0.1% DMSO) in triplicates, followed by incubation for 48 h. DMSO (0.1%) was used as control. After incubation, medium was removed followed by the addition of PI (25 µl, 50µg/mL in water/medium) to each well of the plates. At -80 °C, the plates were allowed to freeze for 24 h, followed by thawing at 25 °C. A fluorometer (Polar-Star BMG Tech) was used to record the readings at excitation and emission wavelengths of 530 and 620 nm for each well. The percentage cytotoxicity of compounds was calculated using the following formula:

[3] = test system: four cancer cell lines (A-549, MCF-7, Panc-1, HT-29); test: Antiproliferative assay, average over the four cancer cell lines (GI50); details: for Fold less potent than the reference doxorubicin (GI50): mean GI50 compared with doxorubicin; for IC50: read-out: Antiproliferative activity IC50, Average (mean GI50)
Protocol: as §4, §5

[4] = test system: Panc-1 (pancreas cancer cell line); test: Antiproliferative assay, Panc-1; type: cell-based; details: Homo sapiens, read-out: Antiproliferative activity IC50 ± SEM, Panc-1
Text: as §1, §2

[5] = test system: MCF-7 (breast cancer cell line); test: Antiproliferative assay, MCF-7; type: cell-based; details: Homo sapiens, MCF7; read-out: Antiproliferative activity IC50 ± SEM, MCF-7
Text: as §1, §2

[6] = Cell viability assay (MTT) on normal cell line; type: cell-based; details: human, MCF-10A mammary epithelial cells, 50 µM of compound;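 further: values are percent cell viability not percent inhibition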
Protocol: To study the effect of 4a-l and 5a-c on normal cell lines, a cell viability assay was done using the MCF-10A (human mammary gland epithelial) cell line ([Abdelbaset et al., 2019]; [Al-Wahaibi et al., 2020]). This study uses a concentration of 50 µM of the investigated compound for 4 days, after which cell viability is evaluated.
To study the effect of 4a-l and 5a-c on normal cell lines, a cell viability assay was done using the MCF-10A (human mammary gland epithelial) cell line ([Abdelbaset et al., 2019]; [Al-Wahaibi et al., 2020]). See Supplementary Appendix S1A.
MTT assay was carried out to study the effect of compounds on mammary epithelial cells (MCF-10A). The medium in which cells were propagated contained Dulbecco's modified Eagle's medium (DMEM)/ Ham's F-12 medium (1:1) supplemented with epidermal growth factor (20 ng/mL), hydrocortisone (500 ng/mL), insulin (10 μg/mL), 2 mM glutamine and 10% fetal calf serum. After every 2-3 days, the cells were passaged using trypsin ethylenediamine tetra acetic acid (EDTA). The cells were seeded at a density of 10^4 cells mL^-1 in flat-bottomed culture plates containing 96 wells each. After 24 h, medium was removed from the plates and the compounds in (in 0.1% DMSO) were added (in 200 μL medium to yield a final concentration of 0.1% v/v) to the wells of plates. A single compound was designated with four wells followed by incubation of plates for 96h at 37°C. After incubation, medium was removed completely from the plates followed by addition of MTT (0.4 mg/mL in medium) to each well and subsequent incubation of plates for 3h. MTT (along with the medium) was removed and DMSO (150μL) was added to each well of the culture plates, followed by vortexing and subsequent measurement of absorbance (at 540 nm) using microplate reader. The data are shown as percentage inhibition of proliferation in comparison with controls containing 0.1% DMSO.

[7] = molecular target: T1, topo IIα (Homo sapiens, UniProt P11388); test: Topo IIα inhibitory assay (pBR322 relaxation); type: biochemical
T1 construct: purchased USB Corp., USA
Protocol: (§3) All the tested compounds were dissolved in DMSO and the DNA topoisomerase I and II inhibitory activity of each compound was measured as follows according to previously reported methods. Mixture comprising of 100 ng supercoiled pBR322 plasmid DNA (Thermo Scientific, USA) and 0.2 ~ 1 unit of recombinant human DNA topo I (Topo GEN INC., USA) or topo IIα (USB Corp., USA) was incubated with or without the prepared compounds in the assay buffer (For topo I, 10 mM Tris-HCl (pH 7.9), 150 mM NaCl and 0.1% BSA, 0.1 mM spermidine and 5% glycerol; for topo II, 10 mM Tris-HCl (pH 7.9), 50 mM NaCl, 50 mM KCl, 5 mM MgCl2, 1 mM EDTA, 1 mM ATP and […] BSA) for 30 min at 37 ◦C. The reaction with final volume of 10 μL was stopped by adding the topo stop buffer (For topo I, 10% SDS solution containing 0.2% bromophenol blue, 0.2% xylene cyanol and 30% glycerol; for topo II, 7 mM EDTA). The reaction products were electrophoresed on 0.8% agarose gel at 50 V for 1 h with TAE electrophoresis buffer. The gels were stained in an EtBr solution (0.5 mg/mL) and visualized by transillumination with UV light and were quantitated using Alpha Tech ImagerTM (Alpha Innotech Corp., USA).

[8] = molecular target: T2, recombinant human DNA topo I (Homo sapiens, UniProt P11387); test: Topo I inhibitory assay (pBR322 relaxation); type: biochemical
T2 construct: purchased Topo GEN INC., USA
T2 sequence (P11387 1-765): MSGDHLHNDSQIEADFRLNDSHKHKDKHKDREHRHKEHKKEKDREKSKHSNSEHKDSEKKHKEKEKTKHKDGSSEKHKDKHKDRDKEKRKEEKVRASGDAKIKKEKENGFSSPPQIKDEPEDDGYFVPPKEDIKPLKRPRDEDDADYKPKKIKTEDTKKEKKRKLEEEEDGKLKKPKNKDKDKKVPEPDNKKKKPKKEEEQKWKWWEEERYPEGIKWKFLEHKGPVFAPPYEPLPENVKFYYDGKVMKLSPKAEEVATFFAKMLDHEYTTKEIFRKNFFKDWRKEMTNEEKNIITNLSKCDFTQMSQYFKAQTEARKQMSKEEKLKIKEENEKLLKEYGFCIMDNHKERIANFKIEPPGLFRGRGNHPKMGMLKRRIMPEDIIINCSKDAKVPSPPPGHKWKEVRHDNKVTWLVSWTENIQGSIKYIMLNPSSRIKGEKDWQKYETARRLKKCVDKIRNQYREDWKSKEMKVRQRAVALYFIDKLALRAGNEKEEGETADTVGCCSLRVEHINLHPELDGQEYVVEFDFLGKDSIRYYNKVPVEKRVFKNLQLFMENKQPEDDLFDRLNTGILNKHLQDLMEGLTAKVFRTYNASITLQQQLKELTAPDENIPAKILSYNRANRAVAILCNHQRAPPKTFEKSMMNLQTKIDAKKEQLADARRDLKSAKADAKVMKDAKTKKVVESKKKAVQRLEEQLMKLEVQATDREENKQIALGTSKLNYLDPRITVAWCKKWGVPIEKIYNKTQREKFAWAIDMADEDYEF
Protocol: as §3

T1 sequence (P11388 whole entry): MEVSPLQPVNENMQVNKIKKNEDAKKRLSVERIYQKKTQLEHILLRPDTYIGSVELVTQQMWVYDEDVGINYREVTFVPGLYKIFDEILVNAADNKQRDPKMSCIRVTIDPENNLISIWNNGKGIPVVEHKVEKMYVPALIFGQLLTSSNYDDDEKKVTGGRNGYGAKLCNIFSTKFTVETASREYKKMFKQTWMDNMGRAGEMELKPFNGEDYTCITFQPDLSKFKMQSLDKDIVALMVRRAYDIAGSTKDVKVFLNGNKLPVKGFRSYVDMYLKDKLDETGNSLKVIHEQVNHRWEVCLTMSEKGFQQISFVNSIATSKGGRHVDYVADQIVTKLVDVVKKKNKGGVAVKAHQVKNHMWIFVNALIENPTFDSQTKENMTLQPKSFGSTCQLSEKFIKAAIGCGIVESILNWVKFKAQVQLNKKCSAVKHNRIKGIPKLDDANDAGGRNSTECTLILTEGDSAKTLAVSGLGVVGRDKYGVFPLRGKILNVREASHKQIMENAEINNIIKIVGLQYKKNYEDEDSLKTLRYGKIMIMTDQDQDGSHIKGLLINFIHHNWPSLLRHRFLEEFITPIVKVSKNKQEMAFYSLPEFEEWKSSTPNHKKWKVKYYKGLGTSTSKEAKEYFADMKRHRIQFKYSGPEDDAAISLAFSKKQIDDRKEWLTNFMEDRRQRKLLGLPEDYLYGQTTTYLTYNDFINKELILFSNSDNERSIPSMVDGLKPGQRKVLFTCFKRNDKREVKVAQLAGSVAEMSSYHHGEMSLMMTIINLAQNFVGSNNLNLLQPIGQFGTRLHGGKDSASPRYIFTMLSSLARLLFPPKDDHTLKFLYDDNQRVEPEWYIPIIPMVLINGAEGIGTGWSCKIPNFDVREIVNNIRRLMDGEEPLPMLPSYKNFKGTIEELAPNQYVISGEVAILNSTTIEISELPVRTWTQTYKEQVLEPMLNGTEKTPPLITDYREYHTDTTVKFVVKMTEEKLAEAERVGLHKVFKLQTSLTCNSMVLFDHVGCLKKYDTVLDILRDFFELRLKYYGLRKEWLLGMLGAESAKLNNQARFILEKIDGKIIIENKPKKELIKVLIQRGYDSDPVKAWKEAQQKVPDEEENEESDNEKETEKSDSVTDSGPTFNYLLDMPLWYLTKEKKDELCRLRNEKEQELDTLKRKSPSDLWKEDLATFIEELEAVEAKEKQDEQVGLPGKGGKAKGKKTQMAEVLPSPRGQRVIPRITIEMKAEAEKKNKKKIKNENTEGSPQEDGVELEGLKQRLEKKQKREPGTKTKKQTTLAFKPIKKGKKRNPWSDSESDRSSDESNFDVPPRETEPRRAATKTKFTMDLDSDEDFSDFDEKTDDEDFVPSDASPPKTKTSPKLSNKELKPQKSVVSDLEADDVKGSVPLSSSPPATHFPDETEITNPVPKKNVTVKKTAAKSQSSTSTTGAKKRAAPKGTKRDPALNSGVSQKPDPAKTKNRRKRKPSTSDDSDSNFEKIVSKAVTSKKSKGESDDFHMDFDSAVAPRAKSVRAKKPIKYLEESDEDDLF

Compound	IC50 [1] [µM]	IC50 [2] [µM]	Fold less potent than the reference doxorubicin (GI50) [3]	IC50 [3] [µM]	IC50 [4] [µM]	IC50 [5] [µM]	melting point [°C]	inhibition at 20 µM [7] [%]	inhibition at 100 µM [7] [%]	viability at 4 days, 50 µM [6] [%]	inhibition at 20 µM [8] [%]	inhibition at 100 µM [8] [%]
COc1ccc2[nH]c(=O)cc(/N=C(\C3CCCC3)N3CCCCC3)c2c1 [Compound 4c, (E) 4-((Cyclopentyl(piperidin-1-yl)methylene)amino)-6-methoxyquinolin-2(1H)-one]	2.3 ± 0.2	2.2 ± 0.2	–	2.1	2.05 ± 0.2	1.9 ± 0.2	250	–	–	91	–	–
Cc1cccc2c(/N=C(\C3CCCC3)N3CCCCC3)cc(=O)[nH]c12 [Compound 4e, (E) 4-((Cyclopentyl(piperidin-1-yl)methylene)amino)-8-methylquinolin-2(1H)-one]	1.3 ± 0.1	1.2 ± 0.1	–	1.2	1.2 ± 0.1	1.1 ± 0.1	184	25.6	60.4	90	39.1	81.4
Cc1ccc2[nH]c(=O)cc(/N=C(\C3CCCC3)N3CCOCC3)c2c1 [Compound 4h, (E) 4-((Cyclopentyl(morpholino)methylene)amino)-6-methylquinolin-2(1H)-one]	2.6 ± 0.2	2.3 ± 0.2	–	2.3	2.3 ± 0.2	1.9 ± 0.2	226	–	–	91	–	–
O=c1cc(/N=C(\C2CCCC2)N2CCOCC2)c2ccccc2[nH]1 [Compound 4g, (E) 4-((Cyclopentyl(morpholino)methylene)amino)quinolin-2(1H)-one]	6.3 ± 0.6	6.2 ± 0.6	at least 6 fold	6.1	6.1 ± 0.6	5.9 ± 0.6	–	–	–	89	–	–
CC[C@@]1(O)C(=O)OCc2c1cc1n(c2=O)Cc2cc3ccccc3nc2-1 [Camptothecin, reference compound]	–	–	–	–	–	–	–	–	–	–	40	82.6
O=c1cc(/N=C(\C2CCCC2)N2CCCCC2)c2ccccc2[nH]1 [Compound 4a, (E) 4-((Cyclopentyl(piperidin-1-yl)methylene)amino)quinolin-2(1H)-one]	5.9 ± 0.5	5.5 ± 0.5	–	5.5	5.4 ± 0.5	5.1 ± 0.5	210	–	–	85	–	–
Cn1c(=O)cc(/N=C(\C2CCCC2)N2CCCCC2)c2ccccc21 [Compound 4f, (E) 4-((Cyclopentyl(piperidin-1-yl)methylene)amino)-1-methylquinolin-2(1H)-one]	8 ± 0.8	7.7 ± 0.8	–	7.8	7.9 ± 0.8	7.5 ± 0.8	142	–	–	87	–	–

More lines, main results first:

IC50 [1] [µM]	IC50 [2] [µM]	Fold less potent than the reference doxorubicin (GI50) [3]	IC50 [3] [µM]	IC50 [4] [µM]	IC50 [5] [µM]	melting point [°C]	inhibition at 20 µM [7] [%]	inhibition at 100 µM [7] [%]	Compound	viability at 4 days, 50 µM [6] [%]	inhibition at 20 µM [8] [%]	inhibition at 100 µM [8] [%]
7.6 ± 0.7	7.2 ± 0.7	at least 6 fold	7.3	7.4 ± 0.7	7.1 ± 0.7	–	–	–	Cn1c(=O)cc(/N=C(\C2CCCC2)N2CCOCC2)c2ccccc21 [Compound 4l, (E) 4-((Cyclopentyl(morpholino)methylene)amino)-1-methylquinolin-2(1H)-one]	89	–	–
4.6 ± 0.4	4.1 ± 0.4	–	4.2	4.2 ± 0.4	4.05 ± 0.4	220	–	–	Cc1cccc2c(/N=C(\C3CCCC3)N3CCOCC3)cc(=O)[nH]c12 [Compound 4k, (E) 4-((Cyclopentyl(morpholino)methylene)amino)-8-methylquinolin-2(1H)-one]	91	–	–
4.1 ± 0.3	3.8 ± 0.3	–	3.9	3.9 ± 0.3	3.7 ± 0.3	355	–	–	Cc1ccc2[nH]c(=O)cc(/N=C(\C3CCCC3)N3CCN(/C(=N/c4cc(=O)[nH]c5ccc(C)cc45)C4CCCC4)CC3)c2c1 [Compound 5b, 4,4'-((1E,1′E)-(piperazine-1,4-diylbis(cyclopentylmethanylylidene))bis(azanylylid-ene))bis(6-methylquinolin-2(1H)-one)]	91	–	–
3.7 ± 0.3	3.5 ± 0.3	–	3.3	3.1 ± 0.3	2.9 ± 0.3	247	–	–	O=c1cc(/N=C(\C2CCCC2)N2CCOCC2)c2cc(Cl)ccc2[nH]1 [Compound 4j, (E) 4-((Cyclopentyl(morpholino)methylene)amino)-6-chloroquinolin-2(1H)-one]	89	–	–
–	–	–	–	–	–	–	66	83.7	COc1cc([C@@H]2c3cc4c(cc3[C@@H](O[C@@H]3O[C@@H]5CO[C@@H](C)O[C@H]5[C@H](O)[C@H]3O)[C@H]3COC(=O)[C@H]23)OCO4)cc(OC)c1O [Etoposide, reference compound]	–	–	–
5.15 ± 0.3	5.1 ± 0.3	–	5	4.9 ± 0.3	4.7 ± 0.4	360	–	–	O=c1cc(/N=C(\C2CCCC2)N2CCN(/C(=N/c3cc(=O)[nH]c4ccccc34)C3CCCC3)CC2)c2ccccc2[nH]1 [Compound 5a, 4,4'-((1E,1′E)-(piperazine-1,4-diylbis(cyclopentylmethanylylidene))bis(azanylylid-ene))bis(quinolin-2(1H)-one)]	91	–	–
1.2 ± 0.1	1 ± 0.1	–	1.1	1.4 ± 0.2	0.9 ± 0.1	–	–	–	COc1cccc2c1C(=O)c1c(O)c3c(c(O)c1C2=O)C[C@@](O)(C(=O)CO)C[C@@H]3O[C@H]1C[C@H](N)[C@H](O)[C@H](C)O1 [Doxorubicin, reference compound]	–	–	–
